Like-named read-outs stand apart in the source and are kept apart here.

The test system of data set [1] is patients with brain ischemia (subarachnoid hemorrhage, cerebral infarction, brain injury, brain hemorrhage). As to conditions: human, in vivo. Here is the method:
In order further to examine the neuroprotective effect in cerebral ischemia indicated from the experiment, a clinical preliminary study was conducted.
After the neck clipping surgery, 500 mg/day of “DOPS” (registered trademark, Sumitomo Pharmaceuticals Co., Ltd., Japan) was administered for 5 days.
Neck clipping was conducted on the day of onset, when the patient's condition was Hunt & Kosnic Grade IV. From the third day after subarachnoid hemorrhage, 500 mg/day of “DOPS” (registered trademark) was administered for 5 days.
Neck clipping was conducted on the day of onset, when the patient's condition was Hunt & Kosnic Grade IV. Since consciousness disturbance (semicoma), hyperventilation, and reduced light reflex were observed on the sixth day after surgery, a diagnosis of impending cerebral herniation was established and 500 mg/day of “DOPS” (registered trademark) was administered for 5 days. […] Soon after discontinuation of administration, mydriasis was rapidly observed.
Left hemiplegia first appeared and consciousness disturbance (JCS:100) and mydriasis of the right eye were observed 2 days later. Immediately after that, external and internal decompressions was performed and 300 mg/day of “DOPS” (registered trademark) was simultaneously administered for 5 days.
From the time immediately after injury, the patient developed mydriasis in both eyes and deep coma due to brainstem hernia. […]

Data set [2] has as its system beagle dogs. The conditions noted are these: oral, 3 months; 200, 600, 2,000 mg/kg/day; cited from earlier work.
For another data set, the system named is cultured cells. The conditions noted are these: cited from earlier work.
The test system of data set [3] is beagle dogs. As to conditions: oral, 12 months; 125, 500, 2,000 mg/kg/day; cited from earlier work.
The test system of a further data set is mice. As to conditions: mouse, in vivo; cited from earlier work.
Data set [4] deals with SD rats. The conditions noted are these: oral, 12 months, cited from earlier work.
Another data set can be described thus: solubility (descriptive). Format: physicochemical. The text has this: (§1) L-threo-DOPS, whose molecular formula is C9H11NO5, is white or light brown crystals or crystalline powder with no taste or odor. […] It is difficult to measure a clear melting point or decomposition point for L-threo-DOPS. […] DL-threo-DOPS, which contains 50% L-threo-DOPS, can also be used in this invention. Hereafter, L-threo-DOPS and DL-threo-DOPS are generically denoted as “threo-DOPS”.

Another data set has as its system Rats, SD strain. The conditions noted are these: cited from earlier work.
Data set [5] deals with SD rats. The conditions noted are these: oral, 60, 200, 600 mg/kg/day, cited from earlier work.
The subject of data set [6] is rhesus monkeys. The conditions noted are these: oral, 3 months; 300, 1,000, 3,000 mg/kg/day; cited from earlier work.
The subject of data set [7] is rhesus monkeys. As to conditions: cited from earlier work.
Data set [8] concerns SD rats (male and female). The conditions noted are these: oral; 60, 200, 600 mg/kg/day; cited from earlier work.
The subject of data set [9] is SD rats. The conditions noted are these: oral, 3 months, cited from earlier work.
For data set [10], the system named is guinea pigs (Hartley strain, male). The conditions noted are these: guinea pig, in vivo; cited from earlier work.
Data set [11] relates to SD rats. The conditions noted are these: oral; 60, 200, 600 mg/kg/day; cited from earlier work.
Another data set has as its system Mice, ICR strain. As to conditions: cited from earlier work; for LD50: mouse, in vivo.
The test system of another data set is rabbits. As to conditions: oral; 30, 100, 300 mg/kg/day; cited from earlier work.
In data set [12] the test system is middle brain artery (MC) occulusion model Wistar rats. The data set can be described thus: transient cerebral ischemia, middle brain artery (MC) occlusion model, infarction volume. The format is in vivo. The conditions noted are these: for reduction of size of cerebral infarction: MC occlusion 1 hour.
For data set [13], the system named is beagle dogs. As to conditions: cited from earlier work.
A further data set deals with microorganisms. As to conditions: cited from earlier work.
A short description of the next data set: physchem. Format: physicochemical.
Source text: as §1

For data set [14] the following is noted: prior art feature; cited from earlier work.

Consider `N[C@H](C(=O)O)[C@H](O)c1ccc(O)c(O)c1` [L-threo-DOPS, (−)-(2S, 3R)-2-amino-3-hydroxy-3-(3,4-dihydroxyphenyl) propionic acid], for which the adverse effects entry in data set [1] is recorded as “No adverse effects were observed”. Besides, the “abnormality in various observations and testing evaluations” value in the data set on beagle dogs [2], in the data set with beagle dogs [3] and in the data set with rhesus monkeys [6] was “no abnormality was observed” throughout. Moreover, the “mutagenicity, chromosome abnormality” value in the data set on cultured cells is “no mutagenicity was observed”. In the data set with mice, the “mutagenicity, micronucleus” value is listed as “no mutagenicity was observed”. Also, the “dose with suppression of weight increases, increase in thymus weight, necrosis of kidney uriniferous tubuli, degeneration of kidney glomeruli, etc.” value with SD rats [4] (10, 30, 100, 300 mg/kg/day) is at least 30 mg/kg/day. Also, the “dose with drooling, myocarditis and calcification of cardiac muscles, etc.” value in the data set on SD rats [4] is listed as at least 100 mg/kg/day. The “solubility in ether, ethanol and glacial acetic acid” value in the data set “solubility (descriptive)” (ether, ethanol, glacial acetic acid) is “dissolves very little”. The solubility in water entry in the data set “solubility (descriptive)” (water) was “dissolves only slightly”. Besides, the LD50 (as a rule, the dose expected to kill half of the subjects tested) in the data set with Rats, SD strain (rat, in vivo, po) was over 10000 mg/kg; in the data set with rhesus monkeys [7] (rhesus monkey, in vivo, po), over 5000 mg/kg; in the data set with Mice, ICR strain (iv), over 100 mg/kg; with Mice, ICR strain (po), over 10000 mg/kg; in the data set with Mice, ICR strain, over 10000 mg/kg; in the data set on beagle dogs [13] (dog, in vivo, po), over 5000 mg/kg. For the same molecule, the “general symptoms in acute toxicity” value was “reduced voluntary motions, deep breathing and bradypnea” in the data set on Rats, SD strain (rats); “no abnormal symptom was observed” with rhesus monkeys [7] (rhesus monkeys); “reduced voluntary motions, deep breathing and bradypnea” in the data set on Mice, ICR strain (mice); “no abnormal symptom was observed” in the data set on beagle dogs [13] (dogs). The other influence entry in the data set with SD rats [5] and with SD rats [11] was “No other influence was observed” throughout. Moreover, in the data set with SD rats [5] (restorable after birth), the “dose with lower body weights of fetuses and increased occurrence of undulating ribs” value is at least 200 mg/kg. The “influence on mating rate, conception rate, nidation number, embryo/neonate death, teratogenic actions or fetal development” value in data set [8] is “no influence was observed”. In addition, the “dose with suppressed voluntary motions, necrosis of kidney uriniferous tubuli, necrosis of cardiac muscles, etc.” value in the data set with SD rats [9] (60, 300, 1,500 mg/kg/day) is listed as at least 60 mg/kg/day. Besides, in the data set on SD rats [9], the dose with drooling is 1,500 mg/kg/day. Moreover, the “dose with suppression of weight increases and such” value in the data set with SD rats [9] is reported as at least 300 mg/kg/day. In addition, in data set [10], the Endodermoreaction result was “negative”. For the same molecule, the PCA reaction entry in data set [10] is reported as “negative”. For the same molecule, the intra-gel sedimentation reaction entry in data set [10] is recorded as “negative”. In addition, in data set [10], the systemic anaphylaxis reaction entry was “negative”. Besides, in the data set with SD rats [11], the “dose with shortening of the pregnancy period” value is listed as 600 mg/kg. Also, the “dose with suppression of neonatal development after birth” value with SD rats [11] was at least 60 mg/kg. The “influence on the rabbits” value with rabbits is recorded as “no influence on the rabbits was observed”. In addition, the “reduction of size of cerebral infarction” value in [12] (L-threo-DOPS 400 mg/kg (+ BSZ 2 mg/kg) i.p. 30 minutes before occlusion, FIG. 1) was “about 40%”; in data set [12] (L-threo-DOPS 400 mg/kg (+ BSZ 2 mg/kg) i.p. one hour after occlusion, FIG. 2), “about 40%”. Further, in data set [12] (MC occlusion 24 hours, L-threo-DOPS 400 mg/kg (+ BSZ 2 mg/kg) i.p. one hour after occlusion, FIG. 3), the “regression effect on cerebral infarction” value is reported as “no regression effect was observed”. In addition, the “mutagenicity, back mutation” value in the data set on microorganisms is on record as “no mutagenicity was observed”. Moreover, in the data set “physchem”, the pKa – broadly, the negative logarithm of the acid dissociation constant – stood at 7.88.

As for `N[C@H](C(=O)O)[C@H](O)c1ccc(O)c(O)c1` [threo-DOPS], the “passage through the blood-brain barrier” value in [14] was “passes through the blood-brain barrier into the brain”.

These data come from US20010007856A1, “METHOD FOR PREVENTING AND TREATING AT A SUPERACUTE PHASE, AGAINST NEUROLOGICAL DEFICITS OR NEURONAL DEATH IN BRAIN ISCHEMIA AND PATHOLOGICAL CONDITIONS” (priority 1997, published 2001).
